According to patent US20260159520A1, “HETEROBIFUNCTIONAL COMPOUNDS AND METHODS OF TREATING DISEASE” (Halda Therapeutics OpCo, Inc., priority 2022, published 2026):

Legend:
CDK9 = molecular target: T1, CDK9 (Homo sapiens, UniProt P50750); experiment: KdELECT binding assay, CDK9; conditions: CDK9, Table 7
T1 construct: made in house; host or cells: E. coli BL21-derived host (T7 phage) or HEK-293 ('BEK-293' [sic])
Procedure, shortened: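 Phage-tagged or HEK-derived DNA-tagged kinases competed 1 h at room temperature against bead-immobilised biotinylated ligand in SeaBlock/PBS/Tween/DTT buffer, 0.9% DMSO final. Bound kinase eluted with 0.5 μM free ligand and quantified by qPCR; Kd from 11-point 3-fold dilution series.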

[1] = tested on: T-Rex 293 cell line SC cells having increased expression of progesterone receptor isoform B protein; experiment: Cellular growth inhibition, T-Rex 293 SC cells with doxycycline (increased progesterone receptor isoform B expression); assay type: cell-based; conditions: with 10 ng/mL doxycycline (increased progesterone receptor isoform B), 72 hours, CellTiter-Glo 2.0
Procedure: (§1) The following types of cells were prepared for this experiment: (i) a T-Rex 293 cell line having increased expression of progesterone receptor isoform B protein due to exposure to doxycycline and (ii) a T-Rex 293 cell line lacking increased expression of progesterone receptor isoform B protein. Ability of the test compounds to inhibit proliferation of the foregoing cell types was evaluated according to the procedures set forth below.
(§2) The doxycycline-inducible progesterone receptor isoform B protein expressing cell line was established using the following protocol: T-Rex 293 cells were purchased from Invitrogen (Cat #R71007) and transfected using Lipofectamine 2000 with the wild-type progesterone receptor B protein sequence cloned into the pcDNA4/TO vector. Transfected cells were selected using 400 μg/mL Zeocin (Invitrogen Cat #R25001). Following selection, single clones were raised and maintained in Dulbecco's Modified Eagle Medium (DMEM) supplemented with 10% w/w Tetracycline-free fetal bovine serum (FBS) and 250 μg/mL Zeocin. Clones were analyzed for expression of progesterone receptor isoform B protein in the presence and absence of 10 ng/mL doxycycline (Sigma Cat #D9891), and a single doxycycline-inducible clone (hereinafter “SC”) was selected for use in downstream assays.
(§3) The SC cells were seeded on poly-D-lysine coated, black clear-bottom 384-well plates at 2500/well, in 25 μL Phenol Red Free Dulbecco's Modified Eagle Medium (DMEM) supplemented with 10% w/w charcoal-dextran treated fetal bovine serum (FBS) and 1% w/w pen-strep, with or without 10 ng/mL doxycycline. Pen-Strep is a commercially available mixture of penicillin G and streptomycin, which is used in mammalian cell culture media to prevent bacterial contamination. Phenol Red Free Dulbecco's Modified Eagle Medium (DMEM) supplemented with 10% w/w charcoal-dextran treated fetal bovine serum (FBS) and 1% w/w pen-strep, with or without 10 ng/mL doxycycline is herein referred to as Treatment Medium. Following seeding of cells in the plates, the plates were spun at 300×g for 30 seconds, then equilibrated to room temperature for 30 minutes, and then deposited in a humidified tissue culture incubator maintained at 37° C. with 5% CO2.
(§4) At 24 hours after seeding of the cells, dilutions of test compound were prepared in DMSO and dissolved in Treatment Medium, to achieve a final DMSO concentration of 0.5% w/w, thereby providing the Test Compound Solution. A 25 μL aliquot of the Test Compound Solution was added to cells in the well plates. An equal volume of a solution containing DMSO and Treatment Medium was used as a negative control. Following treatment of cells with Test Compound Solution or said equal volume of a solution containing DMSO and Treatment Medium, the plates were spun at 300×g for 30 seconds, and then left in an incubator for 72 hours.
(§5) At the end of the treatment duration, cell viability was quantified with CellTiter-Glo 2.0 reagent (Promega Cat #G9243). For this purpose, plates were equilibrated to room temperature for 30 minutes, and then 25 μL of CellTiter-Glo 2.0 reagent was added to cells in the plate wells. Plates were then agitated on a shaker for two minutes at 500 rpm and subsequently incubated at room temperature for 10 minutes. Following incubation, the plates were spun at 3000×g for 30 seconds, then sealed with an optical adhesive cover, and luminescence readings were measured with an EnVision Plate Reader (Perkin Elmer).
(§6) Data was normalized using zero luminescence for baseline. A four-parameter non-linear regression curve fit was applied to dose-response data in GraphPad Prism data analysis software to determine the half-maximal growth inhibitory concentration (GI50) for each test compound.

[2] = tested on: T-Rex 293 cell line SC cells lacking increased expression of progesterone receptor isoform B protein; experiment: Cellular growth inhibition, T-Rex 293 SC cells without doxycycline; assay type: cell-based; conditions: not exposed to doxycycline, 72 hours, CellTiter-Glo 2.0
Procedure: as §1, §2, §3, §4, §5, §6

T1 sequence (P50750 whole entry): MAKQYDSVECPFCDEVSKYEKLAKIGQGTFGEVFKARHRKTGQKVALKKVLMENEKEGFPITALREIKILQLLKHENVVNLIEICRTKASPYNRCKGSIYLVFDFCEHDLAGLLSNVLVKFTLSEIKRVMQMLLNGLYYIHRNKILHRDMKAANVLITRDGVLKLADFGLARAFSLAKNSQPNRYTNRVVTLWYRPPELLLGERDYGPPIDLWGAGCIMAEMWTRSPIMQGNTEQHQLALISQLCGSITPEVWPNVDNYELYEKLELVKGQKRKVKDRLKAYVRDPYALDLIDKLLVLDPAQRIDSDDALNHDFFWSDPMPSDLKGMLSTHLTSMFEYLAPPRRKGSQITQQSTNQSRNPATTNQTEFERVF

Kd (CDK9) | Structure (SMILES) | GI50 [1] | GI50 [2]
50 to 500 nM | CCc1cnn2c(NCc3ccc(OCCN4CCN(CC5CCN(c6ncc(C(=O)N[C@H]7C(C)(C)[C@H](Oc8ccc(C#N)c(Cl)c8)C7(C)C)cn6)CC5)CC4)nc3)cc(N3CCCC[C@H]3CCO)nc12 [Compound I-41] | < 500 nM | < 500 nM
> 2500 nM | CC1(C)[C@H](NC(=O)c2cnc(N3CCC(OCCNS(=O)(=O)c4ccc(Nc5ncc(Br)c(Nc6cccc(F)c6C(N)=O)n5)cc4)CC3)nc2)C(C)(C)[C@H]1Oc1ccc(C#N)c(Cl)c1 [Compound I-13, 2-(4-(2-((4-((5-bromo-4-((2-carbamoyl-3-fluorophenyl)amino)pyrimidin-2-yl)amino)phenyl)sulfonamido)ethoxy)piperidin-1-yl)-N-((1 r,3r)-3-(3-chloro-4-cyanophenoxy)-2,2,4,4-tetramethylcyclobutyl)pyrimidine-5-carboxamide] | > 3000 nM | > 3000 nM
50 to 500 nM | Cc1ncc(-c2nc(Nc3ccc(C(=O)N4CC[C@H](N(C)CCOC5CCN(c6ncc(C(=O)N[C@H]7C(C)(C)[C@H](Oc8ccc(C#N)c(Cl)c8)C7(C)C)cn6)CC5)C4)cc3)ncc2F)n1C(C)C [Compound I-95, N-[3-(3-chloro-4-cyano-phenoxy)-2,2,4,4-tetramethyl-cyclobutyl]-2-[4-[2-[[(3S)-1-[4-[[5-fluoro-4-(3-isopropyl-2-methyl-imidazol-4-yl)pyrimidin-2-yl]amino]benzoyl]pyrrolidin-3-yl]-methyl-amino]ethoxy]-1-piperidyl]pyrimidine-5-carboxamide] | < 500 nM | < 500 nM
 | CCc1cnn2c(NCc3ccc(N4CCC(N5CCN(C6CN(c7ncc(C(=O)N[C@H]8C(C)(C)[C@H](Oc9ccc(C#N)c(Cl)c9)C8(C)C)cn7)C6)CC5)CC4)nc3)cc(N3CCCC[C@H]3CCO)nc12 [Compound I-86] | < 500 nM | < 500 nM
 | CCc1cnn2c(NCc3ccc(=O)n(CCOCCOCCOCCOCCOCCOCCN(C)c4ncc(C(=O)N[C@H]5C(C)(C)[C@H](Oc6ccc(C#N)c(Cl)c6)C5(C)C)cn4)c3)cc(N3CCCC[C@H]3CCO)nc12 [Compound I-4, N-((1r,3r)-3-(3-chloro-4-cyanophenoxy)-2,2,4,4-tetramethylcyclobutyl)-2-((20-(5-(((3-ethyl-5-((S)-2-(2-hydroxyethyl)piperidin-1-yl)pyrazolo[1,5-a]pyrimidin-7-yl)amino)methyl)-2-oxopyridin-1(2H)-yl)-3,6,9,12,15,18-hexaoxaicosyl)(methyl)amino)pyrimidine-5-carboxamide] | < 500 nM | < 500 nM
< 50 nM | CCc1cnn2c(NCc3ccc(OC4CCN(CC5CCN(c6ncc(C(=O)N[C@H]7C(C)(C)[C@H](Oc8ccc(C#N)c(Cl)c8)C7(C)C)cn6)CC5)CC4)nc3)cc(N3CCCC[C@H]3CCO)nc12 [Compound I-46] | < 500 nM | < 500 nM
50 to 500 nM | Cc1ncc(-c2nc(Nc3ccc(C(=O)N4CC[C@H](N(C)CCOCCOCCOCCOCCOC5CCN(c6ncc(C(=O)N[C@H]7C(C)(C)[C@H](Oc8ccc(C#N)c(Cl)c8)C7(C)C)cn6)CC5)C4)cc3)ncc2F)n1C(C)C [Compound I-97] | 500 to 1500 nM | 1500 to 3000 nM
50 to 500 nM | CCc1cnn2c(NCc3ccc(OCCOCCOCCOC4CCN(c5ccc(C(=O)N[C@H]6C(C)(C)[C@H](Oc7ccc(C#N)c(Cl)c7)C6(C)C)nn5)CC4)nc3)cc(N3CCCC[C@H]3CCO)nc12 [Compound I-44, N-((1r,3r)-3-(3-chloro-4-cyanophenoxy)-2,2,4,4-tetramethylcyclobutyl)-6-(4-(2-(2-(2-((5-(((3-ethyl-5-((S)-2-(2-hydroxyethyl)piperidin-1-yl)pyrazolo[1,5-a]pyrimidin-7-yl)amino)methyl)pyridin-2-yl)oxy)ethoxy)ethoxy)ethoxy)piperidin-1-yl)pyridazine-3-carboxamide] | < 500 nM | < 500 nM
 | CCc1cnn2c(NCc3ccc(OCCCN4CCN(CC5CCN(c6ccc(C(=O)N[C@H]7C(C)(C)[C@H](Oc8ccc(C#N)c(Cl)c8)C7(C)C)cc6)CC5)CC4)nc3)cc(N3CCCC[C@@H]3CCO)nc12 [II-1, N-((1r,3r)-3-(3-chloro-4-cyanophenoxy)-2,2,4,4-tetramethylcyclobutyl)-4-(4-((4-(3-((5-(((3-ethyl-5-((R)-2-(2-hydroxyethyl)piperidin-1-yl)pyrazolo[1,5-a]pyrimidin-7-yl)amino)methyl)pyridin-2-yl)oxy)propyl)piperazin-1-yl)methyl)piperidin-1-yl)benzamide] | < 500 nM | < 500 nM
< 50 nM | CC(C)n1cc(-c2ccnc3[nH]c(C4CCN(CCN5CCN(CC6CCN(c7ncc(C(=O)NC8C(C)(C)C(Oc9ccc(C#N)c(Cl)c9)C8(C)C)cn7)CC6)CC5)CC4)cc23)ccc1=O (stereo not shown) [Compound I-74, N-[3-(3-chloro-4-cyano-phenoxy)-2,2,4,4-tetramethyl-cyclobutyl]-2-[4-[[4-[2-[4-[4-(1-isopropyl-6-oxo-3-pyridyl)-1H-pyrrolo [2,3-b]pyridin-2-yl]-1-piperidyl]ethyl]piperazin-1-yl]methyl]-1-piperidyl]pyrimidine-5-carboxamide] | < 500 nM | < 500 nM
 | CCc1cnn2c(NCc3ccc(OCCCN4CCN(CC5CCN(c6ccc(C(=O)N[C@H]7C(C)(C)[C@H](Oc8ccc(C#N)c(Cl)c8)C7(C)C)cn6)CC5)CC4)nc3)cc(N3CCCC[C@@H]3CCO)nc12 [Compound I-55, N-((1r,3r)-3-(3-chloro-4-cyanophenoxy)-2,2,4,4-tetramethylcyclobutyl)-6-(4-((4-(3-((5-(((3-ethyl-5-((R)-2-(2-hydroxyethyl)piperidin-1-yl)pyrazolo[1,5-a]pyrimidin-7-yl)amino)methyl)pyridin-2-yl)oxy)propyl)piperazin-1-yl)methyl)piperidin-1-yl)nicotinamide] | < 500 nM | < 500 nM
50 to 500 nM | Cc1ncc(-c2nc(Nc3ccc(C(=O)N4CC[C@H](N(C)CCOCCOCCOC5CCN(c6ncc(C(=O)N[C@H]7C(C)(C)[C@H](Oc8ccc(C#N)c(Cl)c8)C7(C)C)cn6)CC5)C4)cc3)ncc2F)n1C(C)C [Compound I-96] | 1500 to 3000 nM | 1500 to 3000 nM
 | CCc1cnn2c(NCc3ccc(OCCOCCOCCOCCOCCOCCOCCN(C)c4ncc(C(=O)N[C@H]5C(C)(C)[C@H](Oc6ccc(C#N)c(Cl)c6)C5(C)C)cn4)nc3)cc(N3CCCC[C@H]3CCO)nc12 [Compound I-5] | < 500 nM | 500 to 1500 nM
50 to 500 nM | CCc1cnn2c(NCc3ccc(OCC4CCN(CC5CCN(c6ncc(C(=O)N[C@H]7C(C)(C)[C@H](Oc8ccc(C#N)c(Cl)c8)C7(C)C)cn6)CC5)CC4)nc3)cc(N3CCCC[C@H]3CCO)nc12 [Compound I-51] | < 500 nM | < 500 nM
500 to 2500 nM | CCc1cnn2c(NCc3ccc(OCCOC4CCN(c5ncc(C(=O)N[C@H]6C(C)(C)[C@H](Oc7ccc(C#N)c(Cl)c7)C6(C)C)cn5)CC4)nc3)cc(N3CCCC[C@H]3CCO)nc12 [Compound I-7, N-((1r,3r)-3-(3-chloro-4-cyanophenoxy)-2,2,4,4-tetramethylcyclobutyl)-2-(4-(2-((5-(((3-ethyl-5-((S)-2-(2-hydroxyethyl)piperidin-1-yl)pyrazolo[1,5-a]pyrimidin-7-yl)amino)methyl)pyridin-2-yl)oxy)ethoxy)piperidin-1-yl)pyrimidine-5-carboxamide] | < 500 nM | < 500 nM
